In US20200215099A1, “NON-ANTICOAGULANT SULFATED OR SULFONATED POLYSACCHARIDES” (Baxalta Incorporated, priority 2012, published 2020):
In brackets after ≈: the same amount, converted by molar mass. Entries after “also recorded” stand apart in the source; their conditions may differ. Read-outs that look alike come from different tables or passages of the source.

Tests used:
FVIII-inhibited plasma = assay: Thrombin generation assay (CAT) in FVIII-inhibited plasma; format: biochemical, human; conditions: for EC50: half maximal thrombin peak
Experimental: The procoagulant activity of the sulfated polysaccharides was assessed by the Thrombin Generation Assay (TGA). The influence of each sulfated polysaccharide on thrombin generation was measured in duplicate via CAT in a Fluoroskan Ascent® reader (Thermo Labsystems, Helsinki, Finland; filters 390 nm excitation and 460 nm emission) following the slow cleavage of the fluorogenic substrate Z-Gly-GIy-Arg-AMC (Hemker H C. Pathophysiol Haemost Thromb (2003) 33(4):15). To each well of a 96 well microplate (Immulon 2HB, clear U-bottom; Thermo Electron) 80 μL of pre-warmed (37° C.) goat anti FVIII antibody treated human normal plasma pool was added. For triggering thrombin generation by tissue factor, 104 of PPP reagent containing a certain amount of recombinant human tissue factor (rTF) and phospholipid vesicles composed of phosphatidylserine, phosphatidylcholine and phosphatidylethanolamine (final concentration of 4 μM) (Thrombinoscope BV, Maastricht, The Netherlands) was added. For studying the procoagulant activity of sulfated polymers a final TF concentration of 1 pM was used to provide FVIII and TFPI sensitivity of the test system. Just prior to putting the plate into the pre-warmed (37° C.) reader, 10 µL of test or reference sample or calibrator compound was added. Thrombin generation was started by dispensing 204 of FluCa reagent (Thrombinoscope BV, Maastricht, The Netherlands) containing fluorogenic substrate and Hepes buffered CaCl2 (100 mM) into each well and fluorescence intensity was recorded at 37° C.
The parameters of the resulting thrombin generation curves were calculated using the Thrombinoscope™ software (Thrombinoscope BV, Maastricht, The Netherlands) and thrombin calibrator to correct for inner filter and substrate consumption effects (Hemker H C, Pathophysiol Haemost Thromb (2003) 33(4):15). With the thrombin calibrator as a reference, the molar concentration of thrombin in the test wells was calculated by the software. The thrombin amounts at the peak and peak times of each thrombin generation curve (peak thrombin, nM) were plotted against sulfated polysaccharide concentrations resulting in the procoagulant profile of these compounds. The thrombin generation assay results are illustrated in the figures appended hereto. From these plots half maximal effective concentrations (EC50) values are determined using a sigmoidal curve fit. The EC50 represents the concentration at which the half maximal thrombin peak is reached.

normal human plasma = assay: Activated partial thromboplastin time assay (aPTT); format: biochemical; conditions: for Ratio aPTT/CAT: 50% increase clotting time / CAT EC50; for 50% Increase Clotting Time: concentration where clotting time is 50% increased over normal plasma control; for anticoagulant activity (in words): aPTT compared with procoagulant CAT concentration
Experimental: The aPTT assay was performed to study anticoagulant activities of NASP. In brief, 50 μL of thawed normal human plasma pool (George King Biomedical, Overland Park, Kans.) was mixed with 5 μL of NASP sample (0-60 μg/mL final plasma concentration). NASPs were diluted in imidazole buffer (3.4 g/L imidazole; 5.85 g/L NaCl, pH 7.4) containing 1% albumin (Baxter, Austria). After addition of 50 μL aPTT reagent (STA APTT, Roche) the samples were incubated for 4 min at 37° C. Clotting was initiated by 50 μL of 25 mM CaCl2 solution (Baxter, Austria) and recorded for up to 5 min. All pipetting steps and clotting time measurements were carried out with an ACL Pro Elite (Instrumentation Laboratory, Bedford, Mass.) instrument. Samples were run in duplicate.
For data analysis, clotting time is plotted against the NASP concentration. Concentrations where the clotting time is 50% increased over the normal plasma control are determined using a linear curve fit.

full-length TFPI = target: T1, full-length TFPI (Homo sapiens, UniProt P10646); assay: Dilute prothrombin time assay with added TFPI (TFPI-dPT); format: biochemical; conditions: for EC50 TFPI-dPT: normal human plasma with rec. FL-TFPI; for reversal of the effect of rec. FL-TFPI (in words): normal human plasma
T1 construct: 0.5 μg/mL full-length TFPI (aa 1-276, constitutively produced by SKHep1); made in house; host or cells: SKHep1
T1 sequence (P10646 29-304): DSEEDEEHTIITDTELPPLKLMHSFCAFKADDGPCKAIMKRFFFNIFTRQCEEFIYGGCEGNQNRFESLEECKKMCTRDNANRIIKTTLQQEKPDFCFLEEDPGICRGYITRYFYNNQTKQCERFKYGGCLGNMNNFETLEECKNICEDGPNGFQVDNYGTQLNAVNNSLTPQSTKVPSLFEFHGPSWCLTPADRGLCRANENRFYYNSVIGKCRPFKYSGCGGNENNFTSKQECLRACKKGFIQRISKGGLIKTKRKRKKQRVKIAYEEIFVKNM
Experimental: A dilute prothrombin time assay with added TFPI (TFPI-dPT) was used to evaluate the TFPI-inhibiting effect of the different NASPs. Pooled normal human plasma (George King Biomedical, Overland Park, Kans.) was pre-incubated with 0.5 μg/mL full-length TFPI (aa 1-276, constitutively produced by SKHep1) and the respective NASP (0-5 μg/mL) for 15 min at RT. TF reagent TriniClot PT Excel S (Trinity Biotech, Wicklow, Ireland), diluted in Hepes-buffered saline 1:200 with 0.5% BSA was added to the plasma samples on an ACL Pro Elite hemostasis analyzer (Instrumentation Laboratory, Bedford, Mass.). Clotting was initiated with 25 mM CaCl2). The volume ratio of plasma:TF:CaCl2 was 1:1:1.
For data analysis, TFPI-dPT is plotted against the log concentration. Half maximal effective concentrations (EC50) values are determined using a sigmoidal curve fit.

[1] = system: FVIII-inhibited human whole blood; assay: Rotation thromboelastometry (ROTEM); conditions: ROTEM, 0.044 pM TF
Experimental: NASPs (0.4-11 μg/mL) were studied in fresh citrated human whole blood by rotation thromboelastometry (ROTEM), an assay that allows continuous visco-elastic assessment of whole blood clot formation and firmness. Blood was incubated with anti-human FVIII plasma raised in goat (Baxter Bioscience, Austria) at 50 BU/mL to simulate hemophilic conditions. Clotting was triggered with 0.044 pM tissue factor (TF) (PRP reagent, Thrombinoscope BV) in the presence of 40 μg/mL CTI (Haematologic Technologies Inc., Essex Junction, Vt., USA). Then 300 μL of the pre-warmed (37° C.) FVIII-inhibited blood was recalcified with 20 μL of a 0.2 M CaCl2 solution. Clot formation was monitored using a ROTEM instrument (Pentapharm Munich, Germany) at 37° C. The final assay concentration of rTF was 44 fM. The ROTEM recording was started immediately and measured for at least 120 min. Each blood sample was analyzed in two independent measurements.
The thromboelastographic parameters of clotting time (CT), clot formation time (CFT) and maximum clot firmness (MCF) were recorded in accordance with the manufacturer's instructions. The first derivative of the thromboelastogram data is plotted to obtain a graph of velocity (mm/s) against time (s). From this graph, the maximum velocity (maxV) and the time at which the maximum velocity is reached (maxV-t) are also determined.

contact pathway = assay: CAT in normal plasma with and without CTI; format: biochemical

## 6-carboxyicodextrin [reference compound]
FVIII-inhibited plasma
  procoagulant activity (in words): not procoagulant

## OC[C@H]1O[C@@](CO)(O[C@H]2O[C@H](CO)[C@@H](O)[C@H](O)[C@H]2O)[C@@H](O[C@H]2O[C@H](CO)[C@@H](O)[C@H](O)[C@H]2O)[C@@H]1O [melezitose]
FVIII-inhibited plasma; 1 pM hTF, 4 μM PL
  EC50: 13.5 µg/mL (≈ 26.8 µM)

## OC[C@H]1O[C@H](OC[C@H]2O[C@H](O[C@]3(CO)O[C@H](CO)[C@@H](O)[C@@H]3O)[C@H](O)[C@@H](O)[C@@H]2O)[C@H](O)[C@@H](O)[C@H]1O [raffinose]
FVIII-inhibited plasma; 1 pM hTF, 4 μM PL
  EC50: 7.4 µg/mL (≈ 14.7 µM)

## Cellopentaose
FVIII-inhibited plasma
  procoagulant activity (in words): substantial procoagulant activity
FVIII-inhibited plasma; 1 pM hTF, 4 μM PL
  EC50: 1.9 µg/mL

## Cellotetraose
FVIII-inhibited plasma; 1 pM hTF, 4 μM PL
  EC50: 4.8 µg/mL

## Cellotriose
FVIII-inhibited plasma; 1 pM hTF, 4 μM PL
  EC50: 30.9 µg/mL

## Fucoidan [Fucoidan (Control), reference compound]
Normal human plasma
  Ratio aPTT/CAT: 23.3
  50% Increase Clotting Time: 7.0 µg/mL
FVIII-inhibited plasma; 1 pM hTF, 4 μM PL
  EC50: 0.3 µg/mL

## Maltopentaose
FVIII-inhibited plasma
  procoagulant activity (in words): substantial procoagulant activity
FVIII-inhibited plasma; 1 pM hTF, 4 μM PL
  EC50: about 2 μg/mL
FVIII-inhibited plasma; 1 pM hTF, 4 μM PL, listed as maltopentose
  EC50: 2.1 µg/mL

## Maltotetraose
FVIII-inhibited plasma
  procoagulant activity (in words): substantial procoagulant activity
FVIII-inhibited plasma; 1 pM hTF, 4 μM PL
  EC50: 5.0 µg/mL

## Maltotriose
FVIII-inhibited plasma; 1 pM hTF, 4 μM PL
  EC50: 20.6 µg/mL

## icodextrin [unsulfated icodextrin, reference compound]
FVIII-inhibited plasma
  procoagulant activity (in words): not procoagulant

## stachyose
FVIII-inhibited plasma
  procoagulant activity (in words): substantial procoagulant activity
FVIII-inhibited plasma; 1 pM hTF, 4 μM PL
  EC50: 2.3 µg/mL

## sulfated 6-carboxy-icodextrin [6-carboxy-Icodextrin (unfractionated, batch 1)]
Normal human plasma
  Ratio aPTT/CAT: 80.0
  anticoagulant activity (in words): non-anticoagulant at its optimal procoagulant concentration
  50% Increase Clotting Time: 3.2 µg/mL
full-length TFPI
  EC50 TFPI-dPT: 0.26 µg/mL
full-length TFPI; listed as sulfated 6-carboxy-icodextrin (21.6 kDa, 10.6% S)
  reversal of the effect of rec. FL-TFPI (in words): reverses the effect of rec. FL-TFPI in plasma
FVIII-inhibited plasma; 1 pM hTF, 4 μM PL, listed as sulfated 6-carboxyicodextrin (21.6 kDa, 10.6% S)
  EC50: 0.04 µg/mL
FVIII-inhibited plasma; listed as sulfated 6-carboxyicodextrin (21.6 kDa, 10.6% S)
  procoagulant activity (in words): procoagulant at very low concentrations

## sulfated 6-carboxy-icodextrin [6-carboxy-Icodextrin (unfractionated, batch 2)]
Normal human plasma
  Ratio aPTT/CAT: 57.0
  50% Increase Clotting Time: 4.0 µg/mL
FVIII-inhibited plasma; 1 pM hTF, 4 μM PL, listed as sulfated 6-carboxyicodextrin (35 kDa, 10.1% S)
  EC50: 0.07 µg/mL
FVIII-inhibited plasma; listed as sulfated 6-carboxyicodextrin (35 kDa, 10.1% S)
  procoagulant activity (in words): procoagulant at very low concentrations
[1]; listed as sulfated 6-carboxy-icodextrin (35 kDa; 10.1% S)
  restoration of coagulation (in words): restores coagulation in human FVIII-inhibited blood

## sulfated maltopentaose [Maltopentaose (Baxter)]
Normal human plasma
  Ratio aPTT/CAT: 1.4
  anticoagulant activity (in words): become anticoagulant within their procoagulant window
  50% Increase Clotting Time: 3.3 µg/mL
full-length TFPI
  EC50 TFPI-dPT: 0.15 µg/mL
full-length TFPI; listed as sulfated maltopentaose (15% S)
  reversal of the effect of rec. FL-TFPI (in words): reverses the effect of rec. FL-TFPI in plasma; also recorded: reverses the effect of recombinant Full Length-Tissue Factor Pathway Inhibitor
FVIII-inhibited plasma
  procoagulant activity (in words): good procoagulant activity
FVIII-inhibited plasma; 1 pM hTF, 4 μM PL
  EC50: 2.4 µg/mL
[1]
  restoration of coagulation (in words): restore coagulation parameters of FVIII-inhibited whole blood
[1]; listed as sulfated maltopentose (15% S)
  restoration of coagulation (in words): restores coagulation to normal in FVIII-inhibited blood
Contact pathway
  activation of the contact pathway (in words): No activation of the contact pathway
Contact pathway; normal plasma, 1 pM hTF, 4 μM PL, ±41 μg/mL CTI
  concentration activating the contact pathway: > 33000 ng/mL

## sulfated xylan [sulfated xylan (14.7% S, 22 kD)]
FVIII-inhibited plasma
  procoagulant activity (in words): procoagulant at low concentrations
FVIII-inhibited plasma; 37° C., 1 pM hTF, 4 μM PL
  procoagulant at (concentration): about 0.01 μg/mL
FVIII-inhibited plasma; 1 pM hTF, 4 μM PL
  EC50: 0.1 µg/mL
FVIII-inhibited plasma; listed as Sulfated xylan
  procoagulant activity (in words): good procoagulant activity in CAT assays at very low concentrations

## xylohexaose
FVIII-inhibited plasma; 1 pM hTF, 4 μM PL
  EC50: 4.8 µg/mL

## α-cyclodextrin
FVIII-inhibited plasma
  procoagulant activity (in words): substantial procoagulant activity
